# Assay results: ChEMBL document CHEMBL1155681, “Structure and antibacterial activity ofp6 new labdane diterpenoid from Salvia leriaefolia” (2000)
# Legend:
# Assay type in all cases: functional
# [1] = test system: Pseudomonas aeruginosa; test: Antibacterial activity against Pseudomonas aeruginosa ATCC 85327
# [2] = test system: Staphylococcus aureus; test: Antibacterial activity against Staphylococcus aureus ATCC 25923 at 0.4 mM; conditions: read-out: IZ
# [3] = test system: Escherichia coli; test: Antibacterial activity against Escherichia coli ATCC 25922
structure (smiles),measurement,setting,value
C=C/C(C)=C/C[C@H]1C(=C)C[C@H]2OC(=O)[C@@]3(C)CCC[C@@]1(C)[C@@H]23,inhibition zone (IZ),[1],12 mm
same,zone of inhibition at 400 µM,[2],20 mm
same,inhibition zone (IZ),[3],13 mm
